Test results as given in patent US5599663A, “Angiotensin IV and analogs as regulators of fibrinolysis” (Brighan & Women's Hospital, priority 1993, dated 1997).
Values belong to the compound of their own block, whether it stands above or below them.

Experiments:
[1] = system: bovine aortic endothelial cells receptor for Ang II; assay: Binding of ^125 I-Ang II to cultured bovine aortic endothelial cells
Text: We first studied the role of angiotensin (Ang) II in the regulation of endothelial fibrinolysis, by determining if Ang II binds to the target cell, which in this case was bovine aortic endothelial cells. In these experiments, we used early passage bovine aortic endothelial cells (P2-4) grown to confluence in DMEM supplemented with penicillin, streptomycin, and 10% newborn calf serum.
To test whether the Ang II receptor on the bovine aortic endothelial cells is similar or identical to the classic AT1 receptor, we measured the potency of the antagonist saralasin for binding.

[2] = system: PAI-1; assay: PAI-1 secretion into conditioned media of bovine aortic endothelial cells (ELISA; activity); assay type: cell-based
Protocol: FIG. 6 is a dose response curve of PAI-1 secretion into the conditioned media of bovine aortic endothelial cells following exposure to Ang II.
In these experiments, we investigated the effects of Ang II on the secretion of PAI-1 into the media of cultured endothelial cells. […] Ang II (in the concentrations indicated) was added to washed, confluent cultures of bovine aortic endothelial cells, and the conditioned media was removed for assay after 18 hour. Levels of PAI-1 antigen in the media were determined using a specific ELISA for PAI-1, such as the assay described in DeClerk et al., Blood (1988) 71:220-225, or the assay sold by Biopool, AB, Umea, Sweden.
(§1) The increases in PAI-1 activity and antigen observed thus far have been associated with an approximate 4-fold increase in PAI-1 message (FIGS. 7 and 8). The cells for these experiments were incubated for 8 hour in fresh serum-free media containing the indicated concentrations of Ang II. Total RNA was extracted and analyzed by Northern blotting.

[3] = system: PAI-1 mRNA; assay: PAI-1 mRNA induction in bovine aortic endothelial cells (Northern / slot blot); assay type: cell-based; settings: for effect on Ang II stimulation of PAI-1 mRNA levels: antagonist 1 μM
Protocol: FIG. 7 is a Northern blot showing the induction of PAI-1 RNA after treatment of bovine aortic endothelial cells with angiotensin II.
FIG. 8 is a graph showing the dose response of PAI-1 RNA induction by Ang II.
FIG. 9 is a Northern blot showing the time course of induction of PAI-1 RNA after treatment of bovine aortic endothelial cells with 20 nM angiotensin II.
FIG. 10 is a graph showing the PAI-1 mRNA levels as a function of time, in bovine aortic endothelial cells treated with 20 nM angiotensin II.
as §1
Ang II is also associated with a time-dependent increase in PAI-1 mRNA that peaks 6-8 hrs after exposure to Ang II, as assessed by Northern blot analysis (FIG. 9). Confluent cultures of bovine aortic endothelial cells were incubated with 20 nM Ang II in serum-free DMEM. Total cytoplasmic RNA was extracted at the indicated times and analyzed by Northern blotting (FIG. 9). The results corresponding to the 3.3-kb PAI-1 mRNA species were quantified by transmission densitometry. To control for variability in gel loading, the blots were stripped and rehybridized with a cDNA probe for β-actin. Normalized data are plotted in the FIG. 10.

[4] = system: t-PA; assay: t-PA antigen or activity in conditioned media of bovine aortic endothelial cells; assay type: cell-based
[5] = system: PAI-1; assay: Plasma PAI-1 during Ang II infusion in human volunteers; assay type: in vivo
Protocol: (§2) Second, this binding appears to have a functional effect on bovine aortic endothelial cells in inducing the synthesis of PAI-1 message and the secretion of PAI-1 into the conditioned media. Importantly, we have observed increased levels of PAI-1 mRNA induced by physiologically relevant doses of Ang II (i.e. 0.1 nM). The potential significance of these in vitro findings are supported by recent data obtained during the infusion of Ang II into healthy human volunteers. In these studies, normotensive volunteers (N=4) received an infusion of Ang II in graded doses of 1.0, 3.0. and 10.0 ng/kg/min., while 4 additional normotensive volunteers received an infusion of D5W. Plasma levels of t-PA and PAI-1 were measured prior to and at the conclusion of each dose. […] Similar findings have been obtained in an additional group of hypertensive volunteers (N=6) that received a constant infusion of Ang II (3 ng/kg/min) over a 45 min period. In these individuals, we observed a 60% increase in plasma PAI-1 compared with pretreatment levels (p<0.04).

[6] = system: t-PA; assay: Plasma t-PA during Ang II infusion in human volunteers; assay type: in vivo
Protocol: as §2

[7] = Mean blood pressure during graded infusions in rabbits; assay type: in vivo, New Zealand White rabbits; settings: for effect on mean blood pressure: graded infusions, healthy rabbits
Text: FIG. 11 is a graph of the mean BP at baseline and after increasing doses of Ang II alone, Ang IV alone, saline, and Ang II in rabbits pretreated with amastatin. Error bars represent SEM.
(§3) We have also undertaken a series of experiments designed to identify the specific form of angiotensin that is responsible for the increased plasma PAI-1 levels seen in our human studies. We examined the effects of graded infusions of Ang II and Ang IV on blood pressure and plasma PAI activity in healthy New Zealand White rabbits.

[8] = system: PAI-1; assay: Plasma PAI-1 during graded infusions in rabbits; assay type: in vivo, New Zealand White rabbits; settings: for effect on plasma PAI-1 levels: graded infusions, healthy rabbits
Text: FIG. 12 is a graph of the mean plasma PAI-1 activity at baseline and after increasing doses of Ang II alone, Ang IV alone, saline, and Ang II in rabbits pretreated with amastatin. Error bars represent SEM.
as §3

[9] = biological target: AT1 receptor; settings: well established property of the AT1 receptor; cited from earlier work
[10] = Ang II after pretreatment with amastatin

Compound: O[C@H](CS)[C@H](O)CS (relative stereo) [DTT]
reduction in total binding ([1]; 5 mM DTT, ^125 I-Ang II (0.27 nM)): 50%

EC50 ([2]; PAI-1 antigen in conditioned media, 18 hour): ~20 nM
increase in PAI-1 message ([3]; 8 hour, serum-free media, normalized to β-actin): ~4 fold
Compound: CC[C@H](C)[C@H](NC(=O)[C@H](Cc1ccc(O)cc1)NC(=O)[C@@H](NC(=O)[C@H](CCCNC(=N)N)NC(=O)[C@@H](N)CC(=O)O)C(C)C)C(=O)N[C@@H](Cc1cnc[nH]1)C(=O)N1CCC[C@H]1C(=O)N[C@@H](Cc1ccccc1)C(=O)O [Ang II, angiotensin II]
effect on secretion of PAI-1 into media ([2]; 18 hour exposure, PAI-1 antigen ELISA): induce the secretion of PAI-1 in a dose-dependent manner
changes in PAI-1 activity ([2]; after reactivation of latent protein with guanidine hydrochloride): corresponding changes in PAI-1 activity
concentration at which increased levels of PAI-1 mRNA were observed [3]: 0.1 nM
time of peak PAI-1 mRNA after exposure ([3]; 20 nM Ang II, serum-free DMEM): 6 to 8 h
effect on t-PA antigen or activity in conditioned media [4]: not observed a similar increase in t-PA antigen or activity
effect on PAI-1 secretion/response in normotensive volunteers ([5]; graded infusion 1.0, 3.0 and 10.0 ng/kg/min): increased in the subjects that received the Ang II infusions in a dose-dependent manner
increase in plasma PAI-1 compared with pretreatment ([5]; hypertensive volunteers (N=6), 3 ng/kg/min over 45 min, p<0.04): 60%
plasma PAI-1 level ([5]; normotensive volunteers (N=4), infusion graded 1.0, 3.0 and 10.0 ng/kg/min, from 14.7±5.3, mean±SEM, p<0.001 by ANOVA): 33.5±10.6
plasma t-PA levels [6]: plasma t-PA levels do not increase
effect on mean blood pressure [7]: dose-dependent increase in mean blood pressure
effect on plasma PAI-1 levels [8]: dose-dependent increase in plasma PAI-1 levels

Compound: CC[C@H](C)[C@H](NC(=O)[C@H](Cc1ccc(O)cc1)NC(=O)[C@@H](N)C(C)C)C(=O)N[C@@H](Cc1cnc[nH]1)C(=O)N1CCC[C@H]1C(=O)N[C@@H](Cc1ccccc1)C(=O)O [Ang IV, VAL-TYR-ILE-HIS-PRO-PHE]
effect on mean blood pressure [7]: stable mean BP
effect on plasma PAI-1 levels [8]: dose-dependent increase in plasma PAI-1 levels

Compound: CCCCc1nc(Cl)c(CO)n1Cc1ccc(-c2ccccc2-c2nn[nH]n2)cc1 [Dup 753]
effect on Ang II stimulation of PAI-1 mRNA levels [3]: does not appear to be prevented

Compound: CC(C)C[C@@H](N)[C@H](O)C(=O)N[C@H](C(=O)N[C@H](C(=O)N[C@@H](CC(=O)O)C(=O)O)C(C)C)C(C)C [amastatin]
effect on mean blood pressure, Ang II after amastatin pretreatment [7, 10]: expected increases in blood pressure
PAI-1 response, Ang II after amastatin pretreatment [8, 10]: PAI-1 response was reduced considerably

Compound: CNCC(=O)N[C@@H](CCCN=C(N)N)C(=O)N[C@H](C(=O)N[C@@H](Cc1ccc(O)cc1)C(=O)N[C@H](C(=O)N[C@@H](Cc1cnc[nH]1)C(=O)N1CCC[C@H]1C(=O)N[C@@H](C)C(=O)O)C(C)C)C(C)C [saralasin, (Sar^1,Val^5,Ala^8)-angiotensin]
effect on Ang II stimulation of PAI-1 mRNA levels [3]: does not appear to be prevented
Ki [9]: 0.4 nM

Compound: ^125 I-Ang II: ^125 I labelled Ang II
character of binding to bovine aortic endothelial cells ([1]; FIG. 2): saturable and specific manner
Kd ([1]; Scatchard transformation of specific binding, room temperature, read-out: apparent Kd): ~2 nM
Bmax ([1]; Scatchard transformation, room temperature): 105 fmol/10^6 cells
time to binding equilibrium ([1]; room temperature): ≤ 45 min
